Several values for one entry are separate records, joined by “and”; a condition that tells them apart may be missing. Identical values can stand only once. Like-named read-outs stand apart in the source and are kept apart here. Values belong to the molecule of their own block, whether it stands above or below them.
Columns and labels:
trypsin = biological target: T1, trypsin (Sus scrofa, UniProt P00761); details: cited from earlier work
T1 construct: purchased Sigma-Aldrich; host or cells: porcine pancreas
T1 sequence (P00761 9-231): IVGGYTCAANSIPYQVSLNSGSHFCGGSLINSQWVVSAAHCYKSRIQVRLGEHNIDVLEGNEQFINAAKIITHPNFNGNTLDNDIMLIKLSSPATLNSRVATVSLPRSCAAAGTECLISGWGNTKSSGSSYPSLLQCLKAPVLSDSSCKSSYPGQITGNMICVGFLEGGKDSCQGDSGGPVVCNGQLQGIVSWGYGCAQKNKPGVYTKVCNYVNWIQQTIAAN

plasmin [1] = biological target: T2, plasmin (Homo sapiens, UniProt P00747); assay: Activity-based profiling of plasmin (SDS-PAGE, streptavidin-HRP western blot); type: binding; details: 50 μM, 30 min, 37°C
T2 construct: purchased Sigma-Aldrich (supplement); R&D Systems; host or cells: human plasma
T2 sequence (P00747 581-810 limits assumed): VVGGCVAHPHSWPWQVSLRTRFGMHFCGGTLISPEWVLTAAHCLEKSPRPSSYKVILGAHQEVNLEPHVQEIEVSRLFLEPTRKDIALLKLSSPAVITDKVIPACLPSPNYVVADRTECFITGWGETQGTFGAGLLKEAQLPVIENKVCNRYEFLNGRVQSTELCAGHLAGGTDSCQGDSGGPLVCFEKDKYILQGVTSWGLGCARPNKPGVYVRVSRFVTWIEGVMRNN
T2 sequence (P00747 97-580 partner limits assumed): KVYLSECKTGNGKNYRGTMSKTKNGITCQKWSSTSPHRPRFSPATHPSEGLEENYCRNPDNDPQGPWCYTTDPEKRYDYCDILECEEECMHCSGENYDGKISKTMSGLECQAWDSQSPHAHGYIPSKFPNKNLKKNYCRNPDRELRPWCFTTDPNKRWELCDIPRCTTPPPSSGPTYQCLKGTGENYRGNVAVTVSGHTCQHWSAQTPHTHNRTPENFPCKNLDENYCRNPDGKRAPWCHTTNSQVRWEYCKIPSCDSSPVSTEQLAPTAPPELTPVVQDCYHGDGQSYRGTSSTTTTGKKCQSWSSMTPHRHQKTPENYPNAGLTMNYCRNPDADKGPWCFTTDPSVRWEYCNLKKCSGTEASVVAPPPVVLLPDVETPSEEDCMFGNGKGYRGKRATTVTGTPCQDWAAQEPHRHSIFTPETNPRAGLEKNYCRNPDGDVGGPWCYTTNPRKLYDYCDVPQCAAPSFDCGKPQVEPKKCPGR
Procedure: (§1) Samples of recombinant protease (trypsin, plasmin, thrombin, chymotrypsin, or HNE, as indicated in the relevant figure legends) were treated with each of the newly synthesized compounds at a concentration of 50 μM, for 30 min, at 37°C. A control sample (no ABP) was prepared by treating the recombinant protease with solvent vehicle (DMF) only, used to prepare the stock solution of each ABP. Samples were also pre-treated (±90°C for 30 min) before being incubated with each putative ABP. With trypsin and thrombin, further samples were prepared where Z-Arg^P-(OPh)2 or NAP559, respectively, was added 30 min prior to the addition of the ABP under examination. All treated samples were then denatured with SDS containing reducing treatment buffer (10 min at 95°C), followed by resolution by SDS-PAGE and subjected to Western blotting. Resolved proteins were then transferred onto the nitrocellulose membrane and labeled with streptavidin-HRP. The ABP–protease complex was then visualized following treatment with Luminata Forte HRP substrate.
(§2) FIGURE 8 Activity Based Profiling of Trypsin-like serine proteases. (A) trypsin was treated (±) with NAP830, for 30 min, at 37°C (± pretreatment with Z-Arg^P-(OPh)2). (B) thrombin (1 […]) was pre-treated with various concentrations of NAP559 (30 min, at 37°C) followed by treatment (±) with NAP858 for 30 min, at 37°C. (C) Plasmin was treated in turn with QUBTL1, NAP962 and NAP830, (± pre-heat inactivation at 95°C, for 10 min) for 30 min, at 37°C. […]
(§3) Following transfer, the extra protein binding sites on the membrane were blocked by addition of 3% (w/v) BSA in TBST (20 mM Tris, 137 mM NaCl, 1% (v/v) Tween 20, pH 7.6) and agitated gently at room temperature for 30 minutes. The biotin-labelled proteases were then detected by addition of Streptavidin-HRP (Vector Laboratories) in 3% (w/v) BSA in TBST at a concentration of 1:20000, for 1 hour at room temperature. […]

plasmin [2] = biological target: T2, plasmin; set-up: method as in Martin and Walker (2017); details: mean ± SD (n=2), ref Martin and Walker (2017); cited from earlier work
chymotrypsin [3] = biological target: T3, chymotrypsin (Bos taurus, UniProt P00766); set-up: method as in Gilmore et al. (2009); details: ref Gilmore et al. (2009); cited from earlier work
T3 construct: purchased Sigma-Aldrich (supplement); Calbiochem; host or cells: bovine pancreas

thrombin = biological target: T4, thrombin (Homo sapiens, UniProt P00734); assay: Activity-based profiling of thrombin (SDS-PAGE, streptavidin-HRP western blot); type: binding; details: 30 min, 37°C; heavy (catalytic) chain; recapitulated in Figure 8B
T4 construct: apparent molecular mass of 31 kDa, corresponding to the heavy (catalytic) chain of the protease; purchased R&D Systems
Procedure: as §1, §2, §3

cathepsin B (CTSB) = biological target: T5, cathepsin B (CTSB) (Homo sapiens, UniProt P07858); assay: Off-target study, residual activity after 2 min pre-incubation: cathepsin B; type: biochemical; details: 25 and 50 μM, 0.1 M MES pH 6.1, 1 mM EDTA, 37°C
T5 construct: purchased R and D Systems
Procedure: (§4) FIGURE 5 Results of “off-target“ studies. NAP849 (A), NAP800 (B) and NAP830 (C) were tested against trypsin, chymotrypsin, and NE. Samples (approx. 0.01 μg) of each protease were incubated with the indicated concentrations of test compound for 2 min, in PBS, pH 7.4, at 37°C. (D) NAP858, NAP962 and NAP849 were tested against cathepsin B at the indicated concentrations in 0.1 M MES, pH 6.1, containing 1 mM EDTA, for 2 min, at 37°C. Aliquots (approx. 10 μL) of each incubation sample were then added to a fresh sample (990 μL) of PBS for the serine proteases and MES for cathepsin B, containing the appropriate substrate for each protease, to measure their residual activity. Controls incubations were performed in the absence of test compound, but in the presence of an appropriate volume of DMF vehicle used to prepare stock solutions of each inhibitor under study.
(§5) Two elements were investigated regarding possible “off-target” effects–determining the extent of cross-reactivity of each of the new putative ABPs between the various serine protease family members and assessing their collateral inhibitory action against another mechanistic class–the cysteine proteases, using cathepsin B (CTSB) as an exemplar.
(§6) For assays requiring a pre-incubation step enzyme and inhibitor in assay buffer were incubated together, at 37 °C, for 2 min, with gentle agitation. The reaction mixture was then aliquoted (50 μL) in duplicate on a black 96-well microtitre plate followed by addition of substrate to make a final concentration of 50 μM in a total volume of 100 μL. The fluorescence production was then measured as described for the previous procedure.
Assays with Cathepsin B required a pre-activation step of the protease prior to use in the fluorogenic enzyme assays. Cathepsin B was diluted to 10 μg/ml in activation buffer (0.1 M MES, pH 6.1, containing 1 mM EDTA and 2 mM DTT) and left to stand at room temperature for 15 minutes. Activated Cathepsin B was then diluted (1:50 to give 10 ng/50 μl) with assay buffer (activation buffer minus the DTT) prior to use as described previously.

plasmin [4] = biological target: T2, plasmin; assay: Irreversible inhibition kinetics of plasmin (fluorogenic substrate progress curves); type: biochemical; details: PBS pH 7.4, 37°C, mean ± SD (n=2)
Procedure: A range of inhibitor concentrations were prepared from a 10 mM stock solution of the test compounds (NAP533, NAP559, NAP800, NAP830, NAP849, and NAP962) in N, N-dimethylformamide (DMF). Recombinant protease activities were assayed using the cognate fluorogenic substrates as follows: trypsin (Z-Gly-Gly-Arg-NHMec), thrombin (Boc-Val-Pro-Arg-NHMec), plasmin (Boc-Val-Leu-Lys-NHMec), human neutrophil elastase (MeO-Succinyl-Ala-Ala-Pro-Val-NHMec), and chymotrypsin (Succinyl-Ala-Ala-Pro-Phe-NHMec). Each substrate was used at a final concentration of 50 μM, in the appropriate buffer for each protease. All inhibition assays were performed in microtiter plates maintained at 37°C in a final volume of 100 μL. The reaction was initiated by the addition of each protease (approx. 0.01 μg/well) and the rate of substrate hydrolysis was recorded continuously at 37°C, over a 60 min period, by measuring the rate of increase in fluorescence (at λex 360 nm, λem 480 nm) using a FLUOstar Optima microplate reader (BMG Labtech).
The resultant inhibition progress curves obtained for each inhibitor were analyzed by the kinetic models developed by [Tian and Tsou (1982)] and [Walker and Elmore (1984)], for irreversible inhibitors, with curve fitting being achieved using GraFit (Erithacus Software), as described previously ([Ferguson et al., 2016]).
FIGURE 4 Progress curves for (A), chymotrypsin-catalysed hydrolysis of Succinyl-Ala-Ala-Pro-Phe-NHMec, in the presence of varying concentrations of NAP849. (B), NE-catalysed hydrolysis of MeO-succinyl-Ala-Ala-Pro-Val-NHMec, in the presence of varying concentrations of NAP800. (C) Trypsin-catalysed of Z-Gly-Gly-Arg-NHMec, in the presence of NAP830. (D) Plasmin-catalysed hydrolysis of Boc-Val-Leu-Lys-NHMec, in the presence of varying concentrations of NAP962. Assays were carried out in PBS, pH 7.4, at 37°C, in the presence of a range of inhibitor concentrations (0.25–50 μM) and a fixed concentration (50 μM) of the appropriate substrate for each protease.
The “product progress” curves for substrate hydrolysis in the presence of an inhibitor (Figure 4) are indicative of the action of irreversible inhibitors operating through the kinetic scheme illustrated in Figure 6. In this scheme, the formation of the reversible enzyme–inhibitor complex (EI) is zcharacterized by the inhibitor constant K i. This is converted into the covalent/irreversible complex (E-I) characterized by a first-order rate constant k 3. The overall second-order rate constant for the inactivation of E by I is given by the ratio k 3/K i ([Walker and Elmore, 1984]; [Tsou, 1988]).
Fluorogenic enzyme assays were carried out on a FLUOstar OPTIMA spectro-fluorimeter (BMG Labtech) with analysis performed on MARS Data Analysis Software (BMG Labtech). Black 96-well microtitre plates were supplied by Thermo Scientific. Trypsin from porcine pancreas, plasmin from human plasma and chymotrypsin from bovine pancreas were obtained from Sigma-Aldrich. Thrombin and Cathepsin B were supplied by R and D Systems. Human Neutrophil Elastase was supplied by Calbiochem. Fluorogenic substrates Z-Gly-Gly-Arg-NHMec, Succinyl-Ala-Ala-Pro-Phe-NHMec and MeO-Succinyl-Ala-Ala-Pro-Val-NHMec were supplied by Sigma-Aldrich. Boc-Val-Pro-Arg-NHMec was obtained from R and D Systems and Boc-Val-Leu-Lys-NHMec was supplied by PeptaNova. Phosphate Buffered Saline tablets were acquired from Sigma- Aldrich.
Protease inactivation by each of the compounds under study was evaluated using a fluorogenic enzyme assays. Protease-substrate combinations used as detailed in Section 2. Inhibitors were made up as 10 mM stock solutions in either DMF or DMSO, then diluted with PBS (pH 7.4) to give appropriate working concentrations. A final volume of 100 μL was used per well. Substrate (50 μM final concentration) was added to a black 96-well microtitre plate (Thermo Scientific), in duplicate, followed by addition of inhibitor, in such a manner to give the required final concentration. […]

chymotrypsin [5] = biological target: T3, chymotrypsin; assay: Off-target study, residual activity after 2 min pre-incubation: chymotrypsin; type: biochemical, bovine; details: highest concentration (50 μM); 2 min incubation, PBS pH 7.4, 37°C
Procedure: as §4, §5, §6
(§7) Figure ST1. Results of “off-target” studies. NAP559 and NAP533 were tested against chymotrypsin, and NE. Samples (approx. 0.01 mg) of each protease were incubated with the indicated concentrations of test compound for 2 min, in PBS, pH 7.4, at 37 °C. Aliquots (approx. 10 µL) of each incubation sample were then added to a fresh sample (990 µL) of PBS containing the appropriate substrate for each protease, to measure their residual activity. Controls incubations were performed in the absence of test compound, but in the presence of an appropriate volume of DMF vehicle used to prepare stock solutions of each inhibitor under study.

neutrophil elastase (NE) = biological target: T6, neutrophil elastase (NE) (Homo sapiens, UniProt P08246); assay: Off-target study, residual activity after 2 min pre-incubation: NE; type: biochemical; details: highest concentration (50 μM); 2 min incubation, PBS pH 7.4, 37°C
T6 construct: purchased Calbiochem
T6 sequence (P08246 30-267): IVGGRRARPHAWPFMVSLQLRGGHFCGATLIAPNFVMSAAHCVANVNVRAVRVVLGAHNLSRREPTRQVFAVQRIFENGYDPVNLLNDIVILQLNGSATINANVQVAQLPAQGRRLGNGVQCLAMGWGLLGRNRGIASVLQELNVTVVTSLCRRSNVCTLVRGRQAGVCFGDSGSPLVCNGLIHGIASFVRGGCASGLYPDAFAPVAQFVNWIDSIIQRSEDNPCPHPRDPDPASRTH
Procedure: as §4, §5, §6, §7

Molecule: Biotin-PEG-Succinyl-Lys^P-(OPh)2 [QUBTL2]
- k 3 / K i (trypsin; ref Martin and Walker (2017)): 18300 M⁻¹ s⁻¹

Molecule: N=C(N)NCCCC(NC(=O)CCC(=O)NCCCOCCOCCOCCCNC(=O)CCCCC1SCC2NC(=O)NC21)P(=O)(Oc1ccccc1)Oc1ccccc1 (centres unmarked) [QUBTL1, biotin-PEG-succinyl-arginine diphenyl phosphonate]
- labelling of plasmin by ABP (western blot) (plasmin [1]): failed to detect any plasmin band
- Ki (plasmin [2]): 89 nM
- k 3 (plasmin [2]): 0.3 (± 0.05) min^−1
- k 3 / K i (plasmin [2]): 3.1 (± 0.2) × 10^6 M^−1 min^−1

Molecule: O=C(CCCCC1SCC2NC(=O)NC21)NCCCOCCOCCOCCCNC(=O)CCC(=O)NC(Cc1ccccc1)P(=O)(Oc1ccccc1)Oc1ccccc1 (centres unmarked) [QUBCL1, biotin-PEG-succinyl-Phe^P-(OPh)2]
- Ki (chymotrypsin [3]): 1080 nM
- k 3 (chymotrypsin [3]): 0.119 min⁻¹
- k 3 / K i (chymotrypsin [3]): 1850 M⁻¹ s⁻¹

Molecule: N=C(N)NCCCN(CC(=O)NCC(=O)NCC(=O)NCCCOCCOCCOCCCNC(=O)CCCCC1SCC2NC(=O)NC21)C(=O)ON1C(=O)CCC1=O (centres unmarked) [NAP858]
- labelling of thrombin by ABP (western blot) (thrombin): detection of a band with an apparent molecular mass of 31 kDa
- inhibitory activity against CTSB (cathepsin B (CTSB)): none of the three carbamates tested exhibited any inhibitory activity against CTSB
- k 3 (trypsin; ref Ferguson et al. (2022)): 0.5 (+ 0.1) min^−1
- k 3 / K i (trypsin; ref Ferguson et al. (2022)): 34300 M⁻¹ s⁻¹ and 35000 M⁻¹ s⁻¹

- Ki (plasmin [4]; Boc-Val-Leu-Lys-NHMec 50 μM): 2200 nM
- k 3 (plasmin [4]; first-order rate constant): 0.4 (± 0.04) min^−1
- k 3 / K i (plasmin [4]; second-order rate constant of inactivation): 1.7 (± 0.3) × 10^5 M^−1 min^−1
- inhibition of chymotrypsin (chymotrypsin [5]): < 5 % of control
- inhibition of NE (neutrophil elastase (NE)): < 5 % of control
Molecule: CC(C)[C@H](NC(=O)CN(Cc1ccccc1)C(=O)CN(CCCCN)C(=O)ON1C(=O)CCC1=O)C(N)=O [NAP533, Succinimidoyl-CO-NLys-NPhe-Val-NH2]

Reference: paper PMC9555310, “Novel inhibitors and activity-based probes targeting serine proteases” (Frontiers in Chemistry, 2022)
